These results are taken from EP0498705A1, “Phenol ethers derivatives, their preparation and their therapeutical use” (SYNTHELABO, priority 1991, dated 1992).

Test [1] is described as follows: Cardiac stimulant activity in man. Format: in vivo, homme. As to conditions: no method or data given.
The target in test [2] is T1, récepteurs β₁ adrénergiques (Cavia porcellus, UniProt H0W3H1).
T1 construct: L'oreillette droite est séparée du coeur; from tissue; host or cells: isolated right atrium of male guinea pigs
T1 sequence (H0W3H1 1-470): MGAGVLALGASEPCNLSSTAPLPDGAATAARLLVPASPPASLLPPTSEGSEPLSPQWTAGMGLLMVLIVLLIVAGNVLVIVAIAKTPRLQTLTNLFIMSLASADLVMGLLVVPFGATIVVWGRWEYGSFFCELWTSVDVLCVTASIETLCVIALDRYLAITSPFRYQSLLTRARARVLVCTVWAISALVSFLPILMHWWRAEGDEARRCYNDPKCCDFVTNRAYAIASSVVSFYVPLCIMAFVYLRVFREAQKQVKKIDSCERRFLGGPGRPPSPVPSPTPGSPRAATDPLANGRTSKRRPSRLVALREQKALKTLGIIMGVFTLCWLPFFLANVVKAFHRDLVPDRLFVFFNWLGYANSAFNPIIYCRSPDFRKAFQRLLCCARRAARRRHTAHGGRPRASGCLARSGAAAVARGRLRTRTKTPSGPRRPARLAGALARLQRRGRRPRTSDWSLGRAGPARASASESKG
The test can be described thus: Blockade of β1 adrenergic receptors in vitro: isoprenaline concentration-effect curves on atrial rate of isolated right atria (Schild analysis). Format: cell-based, cobaye. As to conditions: for déplacement des courbes concentration-effet à l'isoprénaline: R(+) at 0,3, 1, 3 µM, S(-) at 0,1, 0,3, 1 µM, 30 min before the second curve; for Kb: Schild method, antagonism of isoprenaline on atrial rate, isolated guinea pig right atrium, 32°C, confidence interval in brackets, read-out: pA₂ (converted). The text has this: 1. Efficacité des isomères (S)(-) et (R)(+) du cicloprolol en tant que bloquants des récepteurs β₁ adrénergiques dans des conditions in vitro.
Préparation des oreillettes droites.
Des cobayes mâles (race tricolore : élevage LESSIEUX) pesant 200-250 g sont sacrifiés par dislocation cervicale. Les coeurs sont rapidement retirés de la cage thoracique et placés dans une solution de Krebs dans laquelle barbote un mélange de 95 % de O₂ et 5 % de CO₂. La composition de cette solution en mM est : NaCl 118; KCl 4,7; CaCl₂ 2,6; KH₂PO₄ 1,2; MgCl₂ 1,2; NaHCO₃ 25; glucose 11,7; acide ascorbique 1,0. L'oreillette droite est séparée du coeur. Sa base est attachée à un crochet monté sur un support et son apex à un autre petit crochet auquel un fil est accroché. La préparation est transférée dans un bain à organe contenant 20 ml de solution de Krebs oxygénée à 32°C et le fil est connecté à un transducteur de force (Grass, modèle : FTO3C). Une tension de repos de 0,5 g est appliquée à l'oreillette et les signaux de force contractile servent à déclencher un cardiotachomètre pour mesurer le rythme atrial. La force contractile et le rythme atrial sont enregistrés sur un polygraphe.
Après une période de stabilisation de 50 minutes, le tissu est soumis à une concentration de 0,01 µM d'isoprénaline puis est lavé à plusieurs reprises pendant 20 minutes. Immédiatement après, la courbe concentration-effet complète est déterminée en additionnant au bain des concentrations de plus en plus fortes d'isoprénaline (demi-intervalles de l'échelle logarithmique) jusqu'à ce que le rythme atrial ne puisse plus augmenter davantage. Chaque concentration successive d'isoprénaline est ajoutée quand la réponse à la concentration précédente atteint un état stable apparent. A la fin de cette courbe concentration-effet, la préparation est lavée toutes les 10 minutes, pendant 30 minutes, pour lui laisser retrouver son rythme de battement minimal. Puis, une deuxième courbe de réponse aux concentrations est effectuée 30 minutes après avoir soumis la préparation aux différentes concentrations de R(+)-cicloprolol (0,3; 1; et 3 µM) ou de S(-)-cicloprolol (0,1; 0,3 et 1 µM). Les modifications maximales du rythme atrial engendrées par chaque concentration d'isoprénaline sont exprimées en pourcentage par rapport à la réponse émise lors d'une concentration supramaximale d'isoprénaline. Ces valeurs sont utilisées pour construire la courbe concentration-effet dans un repère semi-logarithmique. Il faut noter que si le rythme initial au début de la seconde courbe concentration-effet diffère de celle de la 1ère courbe, la réponse maximale utilisée pour calculer les pourcentages est déterminée par la différence entre le rythme initial de l'oreillette avant l'initiation de la seconde courbe concentration-effet et le rythme atteint par l'oreillette après l'addition de la plus grande concentration d'isoprénaline lors de la première courbe de réponse.
Le logarithme changé de signe de la concentration d'isoprénaline produisant 50 % de l'effet maximal (pD₂) est calculé pour chaque courbe de réponse avant et après chaque concentration de S(-) ou de R(+)-cicloprolol. Les valeurs logarithmiques (concentration ratio-1) sont portées sur l'ordonnée en fonction du logarithme négatif de la concentration d'antagoniste. (Arunlakshana et Schild, Br. J. Pharmacol. 14, 48-54, 1959). […]

Test [3] deals with Rat amyélé. The experiment in a line: Partial β-agonist activity in vivo: heart rate increase in the pithed rat after cumulative i.v. doses. The conditions noted are these: for ED (50 beats per minute increase): iv, dose giving a heart rate increase of 50 beats per minute, pithed rat, i.v., read-out: DE₅₀; for augmentation maximale de fréquence cardiaque (effet agoniste partiel): pithed anaesthetised rat, cumulative i.v. doses. As for the experimental part: 2. Propriétés β-agonistes partielles des isomères (S)(-) et (R)(+) du cicloprolol.
L'activité β-agoniste partielle des deux énantiomères du cicloprolol, a été étudiée in vivo chez le Rat amyélé. Des rats (Spraque-Dawley; Charles River, France) mâles de 250 g environ sont anesthésiés au pentobarbital sodique (55 mg/kg i.p.), amyélés puis placés sous respiration artificielle. La pression artérielle est captée par voie sanglante au niveau de la carotide et l'onde pulsatile alimente un tachographe gui permet de mesurer la fréquence cardiaque. Les composés sont injectés par voie intraveineuse au niveau de la veine fémorale. Ces rats amyélés présentent une fréquence cardiaque réduite d'environ 30 % par rapport à celle de rats intacts anesthésiés. L'activité agoniste partielle des énantiomères est déterminée par l'injection de doses cumulatives des énantiomères. On détermine la dose permettant une augmentation de la fréquence cardiaque de 50 battements par minute (DE₅₀) ainsi que le maximum de l'effet.

For `CC(C)NCC(O)COc1ccc(OCCOCC2CC2)cc1` (stereo not drawn) [cicloprolol, 1-[4-[2-(cyclopropylméthoxy)éthoxy]phénoxy]-3-[(1-méthyléthyl)amino]propan-2-ol], the activité stimulante cardiaque entry in test [1] is “a été confirmée chez l'homme”.

For `CC(C)NC[C@@H](O)COc1ccc(OCCOCC2CC2)cc1` [(R)(+)-cicloprolol, (R)-(+)-1-[4-[2(cyclopropylméthoxy)éthoxy]phénoxy]-3-[(1-méthyléthyl)amino]propan-2-ol], in test [2], the “déplacement des courbes concentration-effet à l'isoprénaline” value is on record as “déplacent vers la droite les courbes concentration-effet à l'isoprénaline de façon parallèle et sans changer la réponse maximale” and the Kb is 240 nM. Further, in test [3], the ED (50 beats per minute increase) was 122 ± 2 µg/kg and the “augmentation maximale de fréquence cardiaque (effet agoniste partiel)” value is 113 ± 5 bat/min.

`CC(C)NCC(O)c1ccc(O)c(O)c1` (stereo not drawn) [isoprénaline, reference compound]: in test [3], the ED (50 beats per minute increase) was found to be 0.02 µg/kg and the “augmentation maximale de fréquence cardiaque (effet agoniste partiel)” value is on record as around 140 bat/min.

Consider `CC(C)NC[C@H](O)COc1ccc(OCCOCC2CC2)cc1` [(S)(-)-cicloprolol, (S)-(-)-1-[4-[2-(cyclopropylméthoxy)éthoxy]phénoxy]-3-[(1-méthyléthyl)amino]propan-2-ol], for which, in test [2], the “déplacement des courbes concentration-effet à l'isoprénaline” value is recorded as “déplacent vers la droite les courbes concentration-effet à l'isoprénaline de façon parallèle et sans changer la réponse maximale” and the Kb is 36.3 nM. Further, the “fois plus puissant que le (R)(+)-cicloprolol, comme antagoniste des récepteurs β₁ adrénergiques” value in test [2] (antilog(7,44 - 6,62), ratio of the pA₂ values) was 6,6 fois. Further, in test [3], the ED (50 beats per minute increase) was determined as 4.6 ± 0.1 µg/kg and the “augmentation maximale de fréquence cardiaque (effet agoniste partiel)” value is recorded as 107 ± 3 bat/min.
